One may read the pIC50 as the IC50 on a negative log10 scale, so that one unit is a factor of ten. A high value points to a low IC50.

What all share (assay type): biochemical
Common to all, as to details: isolated kinase, 33P-ATP

Experiment [1] has as its target T1, IRAK1 (Homo sapiens, UniProt P51617).
T1 construct: purchased Reaction Biology (RBC), HotSpot kinase assay
Nature of the experiment: RBC HotSpot Kinase Assay, IRAK1. From the text: (§1) This assay uses the isolated kinase enzyme. This assay is very useful for determining competition of the inhibitor for ATP and/or substrates and for measuring the kinetics of enzyme inhibition. […] Unlike kinase binding assays that measure competition for ATP, the HotSpot Kinase Assay is a functional assay that measures catalytic activity; as such it measures relative functional potency regardless of the mechanism of enzyme inhibition. This assay uses the form of the various enzymes that are easiest to express, which may not necessarily be the form of the enzyme that exist in the cell. (Sometimes the carboxy terminus has been truncated to aid in expression, or, if it is a receptor kinase, the enzyme itself is isolated from the other parts of the receptor that are involved in regulating kinase activity.)
(§2) The reagent used was as follows: Base Reaction buffer; 20 mM Hepes (pH 7.5), 10 mM MgCl2, 1 mM EGTA, 0.01% Brij35, 0.02 mg/ml BSA, 0.1 mM Na3VO4, 2 mM DTT, 1% DMSO. Required cofactors were added individually to each kinase reaction.
(§3) The reaction procedure was as follows: • 1) Substrates were prepared in freshly prepared Reaction Buffer. • 2) Any required cofactors were delivered to the substrate solution above. • 3) Kinase was delivered into the substrate solution and gently mixed. • 4) Compounds were delivered in 100% DMSO into the kinase reaction mixture by Acoustic technology (Echo550; nanoliter range), followed by incubation for 20 min at room temp. • 5)^33P-ATP was delivered into the reaction mixture to initiate the reaction. • 6) The mixture was incubated for 2 hours at room temperature. • 7) Kinase activity was detected by P81 filter-binding method.

Experiment [2] deals with T2, IRAK4 (Homo sapiens, UniProt Q9NWZ3).
T2 sequence (Q9NWZ3 1-460): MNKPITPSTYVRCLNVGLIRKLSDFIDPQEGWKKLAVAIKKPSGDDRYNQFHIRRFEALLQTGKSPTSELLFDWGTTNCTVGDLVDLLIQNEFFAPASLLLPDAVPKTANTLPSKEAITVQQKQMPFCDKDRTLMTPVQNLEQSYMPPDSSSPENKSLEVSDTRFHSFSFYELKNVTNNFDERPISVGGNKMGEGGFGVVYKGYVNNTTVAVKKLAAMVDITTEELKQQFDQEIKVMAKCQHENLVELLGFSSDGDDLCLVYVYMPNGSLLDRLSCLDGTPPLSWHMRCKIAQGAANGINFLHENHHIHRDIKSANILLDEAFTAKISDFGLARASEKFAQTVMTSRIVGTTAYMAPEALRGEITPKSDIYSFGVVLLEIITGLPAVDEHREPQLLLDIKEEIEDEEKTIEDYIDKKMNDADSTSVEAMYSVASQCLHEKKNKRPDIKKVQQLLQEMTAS
Nature of the experiment: RBC HotSpot Kinase Assay, IRAK4. Further details: purchased Reaction Biology (RBC), HotSpot kinase assay.
From the text: as §1, §2, §3

The target of experiment [3] is T3, FLT3 (Homo sapiens, UniProt P36888).
T3 sequence (P36888 27-993): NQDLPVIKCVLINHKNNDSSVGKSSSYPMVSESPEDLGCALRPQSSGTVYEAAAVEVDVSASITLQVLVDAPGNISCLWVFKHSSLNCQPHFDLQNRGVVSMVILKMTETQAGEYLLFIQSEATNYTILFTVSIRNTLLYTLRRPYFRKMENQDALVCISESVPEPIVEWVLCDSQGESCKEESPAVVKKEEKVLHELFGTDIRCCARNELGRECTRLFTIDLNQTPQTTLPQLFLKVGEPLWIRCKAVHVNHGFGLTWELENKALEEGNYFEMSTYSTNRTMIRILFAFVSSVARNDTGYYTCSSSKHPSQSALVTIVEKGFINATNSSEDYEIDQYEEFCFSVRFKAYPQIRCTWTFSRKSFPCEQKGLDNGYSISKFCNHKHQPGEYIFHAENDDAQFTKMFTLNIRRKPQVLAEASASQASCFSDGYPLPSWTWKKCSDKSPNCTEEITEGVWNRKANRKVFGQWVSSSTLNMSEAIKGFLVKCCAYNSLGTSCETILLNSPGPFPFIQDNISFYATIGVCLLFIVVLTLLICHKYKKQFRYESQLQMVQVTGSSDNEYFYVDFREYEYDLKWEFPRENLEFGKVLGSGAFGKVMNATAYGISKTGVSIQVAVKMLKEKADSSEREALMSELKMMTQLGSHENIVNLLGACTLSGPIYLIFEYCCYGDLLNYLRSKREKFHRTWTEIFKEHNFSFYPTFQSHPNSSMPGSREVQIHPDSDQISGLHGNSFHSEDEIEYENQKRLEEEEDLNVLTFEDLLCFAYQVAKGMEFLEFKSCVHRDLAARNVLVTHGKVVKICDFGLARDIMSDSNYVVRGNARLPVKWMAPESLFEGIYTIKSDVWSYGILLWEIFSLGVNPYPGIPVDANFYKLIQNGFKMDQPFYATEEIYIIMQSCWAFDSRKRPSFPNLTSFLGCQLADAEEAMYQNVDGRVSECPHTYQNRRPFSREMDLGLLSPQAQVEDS
Nature of the experiment: RBC HotSpot Kinase Assay, FLT3. Further details: purchased Reaction Biology (RBC), HotSpot kinase assay.
From the text: as §1, §2, §3

pIC50: −log10 of the molar value.

T1 sequence (P51617 whole entry): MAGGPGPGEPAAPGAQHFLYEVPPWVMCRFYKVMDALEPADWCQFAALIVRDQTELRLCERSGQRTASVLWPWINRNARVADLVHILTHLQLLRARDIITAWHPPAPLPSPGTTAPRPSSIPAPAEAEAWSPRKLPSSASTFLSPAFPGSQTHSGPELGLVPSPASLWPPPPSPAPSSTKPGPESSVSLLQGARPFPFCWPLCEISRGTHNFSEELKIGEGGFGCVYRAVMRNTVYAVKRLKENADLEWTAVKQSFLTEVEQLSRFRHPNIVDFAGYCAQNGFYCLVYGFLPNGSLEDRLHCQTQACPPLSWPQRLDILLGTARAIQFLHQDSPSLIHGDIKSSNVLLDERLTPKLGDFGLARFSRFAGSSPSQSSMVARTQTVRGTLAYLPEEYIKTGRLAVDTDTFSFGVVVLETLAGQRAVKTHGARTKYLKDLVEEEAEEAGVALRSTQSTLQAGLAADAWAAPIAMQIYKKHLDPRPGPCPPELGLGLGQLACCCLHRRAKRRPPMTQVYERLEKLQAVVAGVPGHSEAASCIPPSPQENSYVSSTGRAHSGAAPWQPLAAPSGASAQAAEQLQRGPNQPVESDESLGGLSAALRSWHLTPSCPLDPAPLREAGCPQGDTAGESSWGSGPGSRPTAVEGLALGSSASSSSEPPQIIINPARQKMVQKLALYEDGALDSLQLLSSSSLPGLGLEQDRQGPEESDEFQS

On to `CC1(c2cn3c(-c4cccc(N[C@H]5CNC[C@@H]5C(F)(F)F)n4)cnc3cn2)CC1` [Compound 4, 6-(6-(1-methylcyclopropyl)imidazo[1,2-a]pyrazin-3-yl)-N-((3R,4S)-4-(trifluoromethyl)pyrrolidin-3-yl)pyridin-2-amine], for which the pIC50 in experiment [1] was 6.35; in experiment [2] it was 8.70; in experiment [3], 9.05.

As for `CC1(c2cn3c(-c4cccc(N[C@H]5CCNC[C@@H]5F)n4)cnc3cn2)CC1` [Compound 6, N-((3S,4S)-3-fluoropiperidin-4-yl)-6-(6-(1-methylcyclopropyl)imidazo[1,2-a]pyrazin-3-yl)pyridin-2-amine], the pIC50 was 6.03 in experiment [1], 7.07 in experiment [2] and 9.22 in experiment [3].

`C[C@H]1C[C@@H](Nc2cccc(-c3cnc4cnc(C5(C)CC5)cn34)n2)CCN1` [Compound 7, 6-(6-(1-methylcyclopropyl)imidazo[1,2-a]pyrazin-3-yl)-N-((2S,4S)-2-methylpiperidin-4-yl)pyridin-2-amine]: the pIC50 was 5.48 in experiment [1], 5.99 in experiment [2] and 9.00 in experiment [3].

As for `C[C@@H]1CNC[C@H](Nc2cccc(-c3cnc4cnc(C5(C(F)(F)F)CC5)cn34)n2)C1` [Compound 15, N-((3R,5S)-5-methylpiperidin-3-yl)-6-(6-(1-(trifluoromethyl)cyclopropyl)imidazo[1,2-a]pyrazin-3-yl)pyridin-2-amine], the results for the negative logarithm of the IC50 (pIC50) in experiment [1], in experiment [2] and in experiment [3] were 6.13, 5.99 and 8.52, respectively.

For `FC(F)c1cn2c(-c3cccc(N[C@H]4CNCC45CC5)n3)cnc2cn1` [Compound 20, (R)-N-(6-(6-(difluoromethyl)imidazo[1,2-a]pyrazin-3-yl)pyridin-2-yl)-5-azaspiro[2.4]heptan-7-amine], the results for the negative-log IC50 (pIC50) in experiment [1], in experiment [2] and in experiment [3] were 6.82, 8.70 and above 9.30, respectively.

As for `C[C@H]1C[C@@H](Nc2cccc(-c3cnc4cnc(C(F)F)cn34)n2)CCN1` [Compound 22, 6-(6-(difluoromethyl)imidazo[1,2-a]pyrazin-3-yl)-N-((2S,4S)-2-methylpiperidin-4-yl)pyridin-2-amine], the pIC50 was 6.32 in experiment [1], 6.17 in experiment [2] and 9.00 in experiment [3].

For the compound `FC(F)c1cn2c(-c3cccc(N[C@H]4CNCC4(F)F)n3)cnc2cn1` [Compound 23, 6-(6-(difluoromethyl)imidazo[1,2-a]pyrazin-3-yl)-N-(4,4-difluoropyrrolidin-3-yl)pyridin-2-amine], the results for the pIC50 in experiment [1], in experiment [2] and in experiment [3] were 6.73, 8.15 and above 9.30, respectively.

In the case of `CC1(C)CCNCC1Nc1cccc(-c2cnc3cnc(C(F)F)cn23)n1` (stereo not drawn) [Compound 24, 6-(6-(difluoromethyl)imidazo[1,2-a]pyrazin-3-yl)-N-(4,4-dimethylpiperidin-3-yl)pyridin-2-amine], the pIC50 is 6.63 in experiment [1], 8.70 in experiment [2] and above 9.30 in experiment [3].

As to `FC(F)c1cn2c(-c3cccc(N[C@H]4CNCCC4(F)F)n3)cnc2cn1` [Compound 26, (S)-6-(6-(difluoromethyl)imidazo[1,2-a]pyrazin-3-yl)-N-(4,4-difluoropiperidin-3-yl)pyridin-2-amine], the pIC50 in experiment [1] was 6.99; in experiment [2] it was 9.15; in experiment [3] it was above 9.30.

On to `CC(C)(O)c1cn2c(-c3cccc(N[C@@H]4CCNC4)n3)cnc2cn1` [Compound 27, (R)-2-(3-(6-(pyrrolidin-3-ylamino)pyridin-2-yl)imidazo[1,2-a]pyrazin-6-yl)propan-2-ol], for which the negative-log IC50 (pIC50) is 6.94 in experiment [1], 9.05 in experiment [2] and 9.10 in experiment [3].

For the compound `CC(C)(O)c1cn2c(-c3cccc(N[C@H]4CNC[C@@H](F)C4)n3)cnc2cn1` [Compound 32, 2-(3-(6-(((3R,5S)-5-fluoropiperidin-3-yl)amino)pyridin-2-yl)imidazo[1,2-a]pyrazin-6-yl)propan-2-ol], the pIC50 in experiment [1] was 6.41; in experiment [2] it was 8.52; in experiment [3] it was above 9.30.

(Values after patent US12612410B2 (CHILDREN'S HOSPITAL MEDICAL CENTER, priority 2020, dated 2026).)
